Laboratory results: paper PMC6749236, “Synthesis of Novel 2-(Het)arylpyrrolidine Derivatives and Evaluation of Their Anticancer and Anti-Biofilm Activity” (Molecules, 2019)

Experiments:
M-Hela = experiment: Cytotoxicity assay (Cytell Cell Imaging, DAPI/propidium iodide), cancer cell line; type: cell-based; conditions: Homo sapiens, M-HeLa, read-out: IC50 Cancer Cell Line M-Hela
[1] = test system: early apoptosis markers (Caspase-8, Caspase-9) in M-Hela cell lysates; experiment: Multiplex analysis of early apoptosis markers (MILLIPLEX MAP 7-plex, Luminex); type: cell-based, human; conditions: 24 h, IC50 concentration of 14.7 µM
Method: Multiplex analysis of early apoptosis markers. Next, using the MILLIPLEX® MAP 7-plex Early Phase Apoptosis Signaling kit, seven markers of early apoptosis of JNK, Bad, Bcl-2, Akt, Caspase-9, p53, and Caspase-8 were detected in M-Hela cell lysates. The median fluorescence intensity (MFI) was measured using the Luminex® system. This assay is a quick and convenient alternative to Western blot and immunoprecipitation.
Multiplex analysis of early apoptosis markers. M-Hela cells were incubated for 24 hours with the test substance. Cells were lysed in MILLIPLEX® MAP Lysis buffer containing protease inhibitors. Twenty micrograms of total protein of each lysate diluted in MILLIPLEX® MAP Assay Buffer 2 was analyzed according to the analysis protocol (the lysate was incubated at 4 °C overnight). The mean fluorescence intensity (MFI) was detected using the Luminex® system, MERCK, USA.

M-Hela cells [2] = experiment: Mitochondrial membrane potential, JC-10 flow cytometry; type: cell-based, human; conditions: IC50 concentration of 14.7 μM
Method: Effects on the mitochondrial membrane potential (Δψm) by lead compounds. In confirmation of data on the course of apoptosis in cells along an external pathway not associated with dysfunctional mitochondria, the ability of the tested compounds to reduce the potential of the mitochondrial membrane (Δψm) in M-Hela culture cells was examined using the example of compound 6g. Studies were performed using flow cytometry methods using JC-10 reagent. In normal cells with a high potential of the mitochondrial membrane, the dye JC-10 forms aggregates (J-aggregate) near the mitochondrial membranes. When the membrane potential due to the stimulation of apoptosis falls, JC-10 is evenly distributed in the cell as a monomer (J-monomer). JC-10 units in normal cells have red fluorescence, and JC-10 monomers are green. The ratio between orange-red and green fluorescence can be used to assess the onset of apoptosis. […] The results obtained indicate that the mechanism of action of the studied compounds is not associated with the induction of apoptosis, which proceeds along the mitochondrial pathway.
Flow Cytometry Assay. Mitochondrial membrane potential. […] After the cells were rinsed three times and suspended in PBS, the JC-10 fluorescence was observed by flow cytometry (Guava easy Cyte 8HT, Guava Technologies Inc., Hayward, CA, USA).

M-Hela cells [3] = experiment: Induction of apoptotic effects (annexin V-Alexa Fluor 647, Cytell); type: cell-based, human; conditions: 24 hours of treatment, concentration corresponding to the IC50 value (14.7 μM)
Method: Induction of Apoptotic Effects by test compounds. Cell Culture. M-Hela cells at 1 × 10^6 cells/well in a final volume of 2 mL were seeded into six-well plates. After 24 hours of incubation, a solution of the test compound 6g was added to the wells at the concentration studied.
Cytell Cell Imaging System Assay. M-Hela cells were plated into a 24-well plate (Eppendorf) at a concentration of 1 × 10^6 cells/mL, 500 µL of medium per well, and cultured in a CO2 incubator at 37 °C. Twenty-four hours after seeding the cells into wells the compound was added at a preset dilution, 500 µL to each well. […] Evaluation of apoptotic effects was performed with the help of multifunctional system Cytell Cell Imaging, using Cell Viability BioApp and Automated Imaging BioApp applications. The annexin V-Alexa Fluor 647 apoptosis detection kit, DAPI and propidium iodide purchased from Sigma.
Statistical analysis. The experiments were repeated three times. The cytometric results were analyzed by the Cytell Cell Imaging multifunctional system using the Cell Viability BioApp and Apoptosis BioApp application. The data in the tables and graphs are given as the mean ± standard error.

Chang liver cell line = experiment: Cytotoxicity assay (Cytell Cell Imaging), normal cell line; type: cell-based; conditions: Homo sapiens, read-out: IC50 Normal Cell Line Chang Liver
P388 murine leukemia = experiment: In vivo anti-tumor activity, i.p. implanted leukemia; set-up: species or system BDF1 hybrid male mice; conditions: for ILS / MST ± SD / antitumor (anti-leukemic) activity, in words: days 1, 5, 9; for ILS / MST ± SD: P388; for Survival: day 60; for Survivors/Total: survivors on day 60; for antitumor (anti-leukemic) activity, in words: P388, dose range 18–83 mg/kg/day i.p.
Method: Animals. In vivo experiments were performed using the BDF1 hybrid male mice of 22–24 g weight. The experimental animals were caged in a standard vivarium in 12 h light conditions with free access to food and water. All manipulations with the animals were performed in accordance with the solutions of the Commission on Bioethics of the Institute of Problems of Chemical Physics, Russian Academy of Sciences (IPCP RAS).
Anti-tumor activity. The tumors were transplanted intraperitoneally (i.p.) in accordance with a standard procedure inoculum: 10^6 tumor cells in isotonic solution of NaCl, V = 0.2 cm^3 (leukemia P388). Original compounds were injected intraperitoneally as aqueous solution. Doses from 18 to 83 mg/kg/day and the mode of administration on days 1, 5, and 9 after transplantation were used. In each experiment, a single group of tumor-bearing animals not injected with the compounds served as the control group. Each group consisted of six mice. The animals were observed daily for survival for a minimum of 60 days. The efficacy of the therapy against leukemia (defined as increase in lifespan—ILS) was assessed as the percentage of the median survival time (MST) of the treated group (t) to that of the control group (c): ILS(%) = (MSTt/MSTc) × 100.
Statistics. The experiments were carried out in triplicate. The data are presented in the form X ± SD (mean ± standard deviation). The significance of the differences between the groups was assessed using Student’s t-test. Values of p < 0.05 were considered statistically significant. The data were processed statistically using GraphPad Prism.

[4] = Water solubility (selection for parenteral administration); type: physicochemical

SMILES	IC50 (M-Hela)	IC50 (Chang liver cell line)	ILS (P388 murine leukemia; 18 mg/kg/day i.p.)	MST ± SD (P388 murine leukemia; 18 mg/kg/day i.p.)	Survival (P388 murine leukemia; 18 mg/kg/day)	Survivors/Total (P388 murine leukemia; 18 mg/kg/day)	ILS (P388 murine leukemia; 26 mg/kg/day i.p.)	MST ± SD (P388 murine leukemia; 26 mg/kg/day i.p.)	Survival (P388 murine leukemia; 26 mg/kg/day)	Survivors/Total (P388 murine leukemia; 26 mg/kg/day)	ILS (P388 murine leukemia; 40 mg/kg/day i.p.)	MST ± SD (P388 murine leukemia; 40 mg/kg/day i.p.)	Survival (P388 murine leukemia; 40 mg/kg/day)	Survivors/Total (P388 murine leukemia; 40 mg/kg/day)	ILS (P388 murine leukemia; 55 mg/kg/day i.p.)	Survival (P388 murine leukemia; 55 mg/kg/day)	Survivors/Total (P388 murine leukemia; 55 mg/kg/day)	ILS (P388 murine leukemia; 83 mg/kg/day i.p.)	MST ± SD (P388 murine leukemia; 83 mg/kg/day i.p.)	Survival (P388 murine leukemia; 83 mg/kg/day)	other results
O=C(NC1CCCCC1)N1CCCC1c1ccc(Nc2c([N+](=O)[O-])c(Cl)cc3c2no[n+]3[O-])cc1O (stereo not drawn) [6g, 6-Chloro-4-((4-(1-(cyclohexylcarbamoyl)pyrrolidin-2-yl)-3-hydroxyphenyl)amino)-5-nitrobenzo[c][1,2,5]oxadiazole 1-oxide]	14.7 ± 0.9 µM	46 ± 2.7 µM	–	–	–	–	–	–	–	–	–	–	–	–	–	–	–	–	–	–	fluorescence intensity of Caspase-8 versus control [1]: two times higher; fluorescence intensity of Caspase-9 versus control [1]: at the control level; decrease in mitochondrial membrane potential (Δψm) (M-Hela cells [2]): No decrease; M-Hela cells in which apoptosis was induced (M-Hela cells [3]): 25%; melting point: 170 to 175 °C (dec.)
CN(C)CCNC(=O)N1CCCC1c1ccc(Nc2c([N+](=O)[O-])c(Cl)cc3c2no[n+]3[O-])cc1O.O=C(O)C(F)(F)F (stereo not drawn) [6h, 6-Chloro-4-((4-(1-((2-(dimethylammonio)ethyl)carbamoyl)pyrrolidin-2-yl)-3-hydroxyphenyl)amino)-5-nitrobenzo[c][1,2,5]oxadiazole 1-oxide 2,2,2-trifluoroacetate]	100 ± 8.6 µM	> 100 µM	37%	13.8 ± 0.6 days	0%	0/6	34%	13.5 ± 0.5 days	0%	0/6	27%	12.8 ± 0.7 days	0%	0/6	39%	0%	0/6	11%	11.2 ± 1.6 days	0%	Survivors/Total (P388 murine leukemia; 83 mg/kg/day): 0/6; antitumor (anti-leukemic) activity, in words (P388 murine leukemia): did not show antitumor properties; solubility in water, in words [4]: water-soluble
CN(C)CCNC(=O)N1CCCC1c1cc2c(cc1O)OCO2.O=C(O)C(F)(F)F (stereo not drawn) [5h, 2-(2-(6-Hydroxybenzo[d][1,3]dioxol-5-yl)pyrrolidine-1-carboxamido)-N,N-dimethylethan-1-aminium 2,2,2-trifluoroacetate]	> 100 µM	> 100 µM	276%	35.7 ± 10.9 days	50%	3/6	95%	18.5 ± 8.3 days	17%	1/6	447%	52.0 ± 8.0 days	83%	5/6	300%	50%	3/6	100%	19.0 ± 8.2 days	17%	MST ± SD (P388 murine leukemia; 55 mg/kg/day i.p.): 38.0 ± 9.9 days; Survivors/Total (P388 murine leukemia; 83 mg/kg/day): 1/6; antitumor (anti-leukemic) activity, in words (P388 murine leukemia): pronounced anti-leukemic activity; solubility in water, in words [4]: water-soluble
